Experimental data taken from patent publication US20030027981A1, “Urokinase-type plasminogen activator receptor” (priority 1989, published 2003).

Test system: cell-bound pro-u-PA
Assay: Pro-u-PA index of cell-bound u-PA on HT-1080 cells (immunocapture assay with NPGB step)
Format: cell-based, human
Conditions: for Pro-u-PA index (%): 2 h, serum medium, all with Plg 40 μg/ml, aprotinin (200 KIU/ml), anti-Plg-1 (20 μg/ml), TA (100 μM) rows also with anti-PAI-1 10 μg/ml
Description: FIG. 27. Activation of cell-bound u-PA proenzyme in serum medium after the addition of plasminogen. Confluent layers of HT-1080 cells were incubated with MEM medium containing 10% heat-inactivated and plasminogen-depleted fetal calf serum and native human plasminogen (40 μg/ml). After the time intervals shown, aprotinin (200 KIU/ml) was added and the rinsed cells were treated with acid-glycine to recover the bound fraction of u-PA. The u-PA in the neutralized eluate was assayed by an immunocapture method, using an NPGB inactivation step to determined the pro-u-PA index (see Methods).
Cell culture supernatants were assayed for pro-u-PA and active u-PA by the following modification of an immunocapture method (Stephens et al., 1988; Stephens et al., 1987). Microtitre wells of polystyrene immunoplates (type 269620, A/S Nunc, Roskilde, Denmark) were coated overnight at 37° C. with 50 μl of a solution of goat IgG antibodies to human u-PA (cat. #398, American Diagnostica). The coating solution contained 2.5 μg of IgG per ml of […] sodium carbonate (pH 9.8). After rinsing, the wells were treated with conditioned medium ([…]) for 2 hours at 23° C., then rinsed again. Half the wells were then treated with 50 μl of freshly prepared 2 μM p-nitrophenyl guanidinobenzoate (NPGB, Sigma) (Danø, K., and E. Reich, “Plasminogen activator from cells transformed by an oncogenic virus—Inhibitors of the activator reaction”, Biochim. Biophys. Acta 566: 138-151, 1979) for 20 minutes at 37° C. The other half (controls) received 50 μl of rinsing buffer (0.05% Tween 20 in PBS). After rinsing, u-PA was assayed in all the wells by addition of 40 μl of plasminogen solution (100 μg/ml in assay buffer consisting of 50 mM sodium glycinate (pH 7.8), 0.1% Triton X-100, 0.1% gelatin and 10 mM 6-aminocaproic acid which also contained a very low concentration of plasmin (10 ng/ml)), and incubation took place for 30 minutes at 37° C. This concentration of plasmin in the plasminogen incubation was sufficient to enable full realization of the potential activity of pro-u-PA (cf. Petersen et al., 1988). […] This mixture was incubated for 30 minutes at 37° C., and the absorbancies of the wells were read at 405 nm. […]
Pro-u-PA and active u-PA bound to the cell layer were recovered for immunocapture assays by the same method as was used in the metabolic labelling (see above). […] For conditioned medium and cell-bound u-PA, the u-PA activity assayed after NPGB treatment was expressed as a percentage of the total activity obtained without NPGB treatment, and this percentage used as an index of pro-u-PA content (pro-u-PA index). […]

| Compound | Pro-u-PA index (%) | Proportion of total surface-bound u-PA present as pro-u-PA (cells incubated with human plasminogen 40 μg/ml in serum medium, plasminogen-free cultures approximately 90%) |
| --- | --- | --- |
| NC[C@H]1CC[C@H](C(=O)O)CC1 [TA, tranexamic acid] | 88 |  |
| Plg: native human plasminogen (glutamic acid N-terminal) purified from human plasma on lysine-Sepharose | 50 | approximately 10% |
| aprotinin | 93 |  |
